Source: ChEMBL document CHEMBL5604062, “ASAP - ZIKV NS2B-NS3 protease fluorescence dose response” (2024)
Several values for one entry are separate records, joined by “and”; a condition that tells them apart may be missing. Equal values may be shown once.

Biological target: Nonstructural protein 3 (Zika virus, UniProt A0A024AXB9)
Experiment: Functional biochemical assay to identify treatments for viral infectious disease that targets Zika NS2B-NS3 protease. Utilizing a direct enzyme activity measurement method, reading the fluorescence intensity is used to characterize the relative potency of inhibitors as IC50.
Set-up: species or system PRVABC59

Sequence of Nonstructural protein 3 (A0A024AXB9 whole entry): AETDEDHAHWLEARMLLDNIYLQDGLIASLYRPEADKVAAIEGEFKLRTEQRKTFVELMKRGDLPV

IC50 | Compound
22.3 µM | NCc1cccc(/C=C/c2cc(Cl)cc(NC(=O)OCc3ccccc3)c2)c1
> 25 µM | O=C(Nc1ccc2c(c1)CNC2)c1cc(Cl)cc2[nH]c(-c3cn[nH]c3)cc12
> 99.5 µM | O=C(Nc1cc(Cl)cc(C(=O)NCc2n[nH]c3c2CNCC3)c1)OCc1ccccc1
10.9 µM and 8.65 µM and 8.23 µM and 9.33 µM | NCc1cccc(NC(=O)[C@H](NC(=O)OCc2ccccc2)c2ccc(Br)c(Cl)c2)c1
> 99.5 µM | CCn1ccnc(N2CC[C@@H](C(=O)NC)C2)c1=O
> 99.5 µM | O=C(O)c1cc2c(cc1NS(=O)(=O)c1ccc(F)cc1)CCC2
7.69 µM | C=CC[C@H](Nc1cc(Cl)cc(NC(=O)OCc2ccccc2)c1)c1cccc(CN)c1
20.6 µM | NCc1cccc(NC(=O)c2cc(Cl)cc(OC3CC3)c2)c1
15 µM | NCc1cc(NC(=O)c2cc(Cl)cc(NC(=O)OCc3ccccc3)c2)cc(-c2csc(CC(=O)O)c2)c1
> 99.5 µM | CC(F)(F)c1cccc(NC(=O)c2cc(Cl)cc(NC(=O)OCc3ccccc3)c2)c1
> 99.5 µM | N[C@H]1CC[C@H](CNC(=O)[C@@H](NC(=O)OCc2ccccc2)c2ccc(OCc3ccccc3)cc2)CC1
> 99.5 µM | CCn1cc(-c2ccc3c(c2)CCNC3)nc(N2CC[C@@H](CO)C2)c1=O
0.429 µM | O=C(Nc1ccc2c(c1)CNC2)c1cc(F)c2[nH]c(=O)[nH]c2c1
> 99.5 µM | O=C(Nc1cc(Cl)cc(C(=O)Nc2ccc3c(c2)CNC3=O)c1)OCc1ccccc1
> 99.5 µM | CCn1cc(-c2cnn(C)n2)nc(N2CC[C@@H](CO)C2)c1=O
11.3 µM | C=CC[C@H](Nc1ccc(-c2nn[nH]n2)cc1)c1cc(Cl)cc(NC(=O)OCc2ccccc2)c1
> 99.5 µM | CCn1c(=O)c(N2CCC[C@@H]2c2cncn2C)nc2ccccc21
> 99.5 µM | OC[C@H]1CCN(c2cncc(N3CCOCC3)n2)C1
> 99.5 µM | COc1cc(C(=O)Nc2cccc(CN)c2)cc2cn(C)nc12
> 99.5 µM | NCc1cccc(NC(=O)[C@@H](NC(=O)OCc2ccccc2)C2CCN(S(=O)(=O)C3CCCC3)CC2)c1
> 99.5 µM | COC(=O)[C@@H](C)NC(=O)c1cc(Cl)ccc1NS(=O)(=O)c1ccc(Oc2ccccc2Cl)cc1
2.51 µM | O=C(Nc1ccc([C@H]2CCNC2)cc1)c1cc(Cl)cc2[nH]ncc12
> 99.5 µM | Cn1nnc(S(=O)(=O)N2CCC([C@H](NC(=O)OCc3ccccc3)C(=O)Nc3cccc(CN)c3)CC2)n1
5.86 µM | Cc1cc(C(=O)Nc2cccc(CN)c2)c(NC(=O)[C@H]2CCCO2)s1
0.04 µM and 0.049 µM | O=C(Nc1ccc2c(c1)CNC2)c1cc(F)cc2[nH]ncc12

IC50 | Compound
> 25 µM | CC(C)n1cnc2cc(C(=O)Nc3ccc4c(c3)CNC4)ccc21
> 99.5 µM | O=C(Nc1cc(Cl)cc(C(=O)Nc2ccc(S(=O)(=O)N3CCNCC3)cc2)c1)OCc1ccccc1
> 99.5 µM | CCc1nc2ccc(Cl)cc2n1Cc1ccc2c(c1)CNC2
8.64 µM | CNC(=O)c1cc(CN)cc([C@@H]2C[C@H]2c2cc(Cl)cc(NC(=O)OCc3ccccc3)c2)c1
> 99.5 µM | NCc1cccc(NC(=O)[C@@H](NC(=O)OCc2ccccc2)C2CCN(C3CCOCC3)CC2)c1
> 99.5 µM | CC(C)S(=O)(=O)N1CCC([C@@H](NC(=O)OCc2ccccc2)C(=O)Nc2cccc(CN)c2)CC1
5.8 µM | CCc1ccc(-c2ccc([C@@H](NC(=O)OCc3ccccc3)C(=O)Nc3cccc(CN)c3)cc2)cc1
31.3 µM | Cn1nc(CCN)nc1NC(=O)c1cc(Cl)cc(NC(=O)OCc2ccccc2)c1
> 99.5 µM | COc1cc(C(=O)Nc2cnc3ccccc3c2)nc(N2CCNCC2)n1
> 99.5 µM | NCc1cccc(NC(=O)[C@H]2C[C@@H](C(F)(F)F)C[C@@H](C(F)(F)F)C2)c1
8.04 µM | NCCc1ccc(NC(=O)c2cc(Cl)cc(CN)c2)cc1
> 25 µM | CC1=C(c2cc(F)cc(C(=O)Nc3ccc4c(c3)CNC4)c2)CCCC1
14.6 µM | NCc1cc(NC(=O)c2cc(Cl)cc(NC(=O)OCc3ccccc3)c2)cc(C2=CC[C@H](C(=O)O)CC2)c1
10.6 µM | O=C(NCC(F)(F)F)c1cc(Cl)c(F)cc1NS(=O)(=O)c1ccc(Oc2ccccc2Cl)cc1
0.014 µM and 0.013 µM and 0.01 µM | N#Cc1ccc(-c2nc3c(C(=O)Nc4ccc5c(c4)CNC5)cc(F)cc3[nH]2)cc1
2.44 µM | N#C[C@H](Nc1ccc2c(c1)CNC2)c1cc(Cl)cc2c1OCC2
> 25 µM | CC1([C@H]2CCCN(C(=O)Nc3ccc4c(c3)CNC4)C2)CC1
> 25 µM | O=C(Nc1ccc2c(c1)S(=O)(=O)NC2)c1cc(Cl)cc2[nH]ncc12
> 99.5 µM | c1cc(CN2CCC(c3c[nH]c4ncccc34)CC2)c2[nH]ccc2c1
> 99.5 µM | c1ccc(-c2c[nH]nc2CN2CCC(c3cscn3)CC2)cc1
> 25 µM | NC[C@H]1OCCc2sc(C(=O)Nc3cc(-c4cccnc4)ccn3)cc21
20.1 µM | NC[C@H]1CC[C@H](NC(=O)c2cc(Cl)cc3[nH]ncc23)CC1
> 25 µM | CC1(NC(=O)c2cccc3c2CC(=O)N3)CCOCC1
> 99.5 µM | Clc1snnc1CN1CCC(c2nc3ccccc3o2)CC1
27.4 µM | NCc1cccc([C@H](CCCO)Nc2cc(Cl)cc(NC(=O)OCc3ccccc3)c2)c1

IC50 | Compound
> 25 µM | O=C(Nc1cc([C@H]2CCOC2)ccn1)c1cc(Cl)cc2[nH]ncc12
> 99.5 µM | NCc1cc(CCc2cc(Cl)cc(NC(=O)OCc3ccccc3)c2)cc(C(=O)O)c1
> 99.5 µM | O=C(Nc1cc(Cl)cc(C(=O)Nc2ccccc2[C@@H]2C[C@H]2C(=O)O)c1)OCc1ccccc1
0.146 µM | CN(C)c1nc(-c2cc(F)cc(C(=O)Nc3ccc4c(c3)CNC4)c2)cs1
> 99.5 µM | Cn1c(C(=O)N2CCCc3ccc(C(F)F)cc32)cc2c1CCNC2
> 99.5 µM | Cn1nc(C(=O)Nc2cccc(CN)c2)c2c1CCS(=O)(=O)C2
> 99.5 µM | c1ccc2c(CNC3CCN(Cc4cscn4)CC3)c[nH]c2c1
> 99.5 µM | NC(=O)c1cnccc1N1CCN(Cc2c[nH]c3ccccc23)CC1
> 99.5 µM | NCc1cccc(NS(=O)(=O)c2cc(Cl)cc(NC(=O)OCc3ccccc3)c2)c1
> 99.5 µM | Cc1c(C(=O)Nc2ccc([C@@H](C)N)cc2)cc(C2CC2)n1C
1.87 µM | NCc1cccc(NC(=O)c2cccc(CN)c2)c1
36.6 µM | NCc1ccc(NC(=O)[C@H]2[C@H]3CCCCC[C@H]3[C@H]2NC(=O)OCc2ccccc2)cc1
> 99.5 µM | CCn1ccnc(N2CCC(c3c[nH]c4ccccc34)CC2)c1=O
> 99.5 µM | CCS(=O)(=O)N[C@@H](C(=O)Nc1cccc(CN)c1)c1ccc(OCc2ccccc2)cc1
> 99.5 µM | O=S(=O)(c1c[nH]c2ccccc12)N1CCC(c2cnc3ccc[nH]c2-3)CC1
11.6 µM | NCc1cc(Br)cc([C@H]2C[C@@H]2c2cc(Cl)cc(NC(=O)OCc3ccccc3)c2)c1
16.2 µM | Cn1cnc2nc(Cl)cc(C(=O)Nc3ccc4c(c3)CNC4)c21
> 99.5 µM | O=C(O)c1cc(Cl)ccc1S(=O)(=O)Nc1ccc(S(=O)(=O)N2CCCCC2)cc1
> 99.5 µM | CC1(NS(=O)(=O)c2ccc(Cl)cc2C(=O)O)CCN(c2ccccc2)CC1
> 99.5 µM | COCCNC(=O)[C@H](Nc1cccc(-c2nn[nH]n2)c1)c1cc(Cl)cc(NC(=O)OCc2ccccc2)c1
> 99.5 µM | CN(C)C[C@@]1(O)CCN(C(=O)c2cc(C=O)c[nH]2)C1
> 25 µM | Cn1nc([C@H](Nc2cc([C@H]3CCOC3)ccn2)C(F)(F)F)cc1C1CC1
> 99.5 µM | c1ccc2c(CN3CCC[C@H](c4c[nH]c5ccccc45)C3)c[nH]c2c1
68.9 µM | COc1cc(Br)ccc1[C@@H](NC(=O)OCc1ccccc1)C(=O)Nc1cccc(CN)c1
> 99.5 µM | CC(C)CC(=O)N1CCC([C@H](NC(=O)OCc2ccccc2)C(=O)Nc2cccc(CN)c2)CC1

IC50 | Compound
> 99.5 µM | CN(C)CCNC(=O)[C@H](NC(=O)OCc1ccccc1)c1ccc(OCc2ccccc2)cc1
> 99.5 µM | COC(=O)[C@H](NC(=O)OC(C)(C)C)c1ccc(-c2csc(C)c2)cc1
44.5 µM | CN(C)CCc1ccc(NC(=O)c2cc(Cl)cc(NC(=O)OCc3ccccc3)c2)cc1
5.03 µM | O=C(Nc1ccc2c(c1)CNC2)c1cc(Cl)ccc1OC1CCCC1
0.09 µM and 0.055 µM | Cc1cc(-c2cc(F)cc(C(=O)Nc3ccc4c(c3)CNC4)c2)[nH]n1
> 99.5 µM | CC(C)(C)OC(=O)NCc1cccc(NC(=O)[C@@H](NC(=O)OCc2ccccc2)c2cccc(O)c2)c1
4.94 µM | NCc1ccc(NC(=O)c2cc(Cl)cc3[nH]ncc23)cc1F
> 99.5 µM | NCc1cccc(NC(=O)[C@@H](NC(=O)OCc2ccccc2)C2CCN(Cc3cn[nH]c3)CC2)c1
0.26 µM | COc1cc(Cl)cc(C(=O)Nc2ccc3c(c2)CNC3)c1
0.204 µM | O=C(Nc1ccc2c(c1)CNC2)c1cccc2nc(O)ccc12
> 99.5 µM | c1cnc2c(c1)CC[C@@H]2NCc1n[nH]c2ccccc12
> 25 µM | CC(C)Nc1c(-c2cc(Cl)cc3[nH]ncc23)nc2ccc3c(n12)CNC3
11.8 µM | O=C(Nc1cc(Cl)cc(-c2ccc3cc(C(=O)O)[nH]c3c2)c1)OCc1ccccc1
> 99.5 µM | O=C1Cc2cc(NC(=O)c3cc(Cl)cc(NC(=O)OCc4ccccc4)c3)ccc2N1
0.056 µM and 0.043 µM | O=C(Nc1ccc2c(c1)CNC2)c1cc(F)cc(-c2cnc(C3CC3)s2)c1
> 99.5 µM | O=C(Nc1cc(Cl)cc(C(=O)Nc2cnc3n2CCNC3)c1)OCc1ccccc1
> 99.5 µM | Nc1cccc(NC(=O)c2cc(Cl)cc(NC(=O)OCc3ccccc3)c2)c1
0.256 µM | CNC(=O)[C@H](Nc1ccc2c(c1)CNC2)c1cc(Cl)cc2c1OCC2
> 99.5 µM | Cn1ccc(COc2ccc([C@@H](NC(=O)OCc3ccccc3)C(=O)Nc3cccc(CN)c3)cc2)n1
> 99.5 µM | NCc1cccc(NC(=O)[C@H](NC(=O)OCc2ccccc2)C2CCN(S(=O)(=O)c3ccccc3)CC2)c1
97.2 µM | CCn1cc(-c2ccc([C@@H](NC(=O)OCc3ccccc3)C(=O)Nc3cccc(CN)c3)cc2)cn1
24.7 µM | O=C(Nc1cc(Cl)cc(-c2ccc3nc(C(=O)O)ncc3c2)c1)OCc1ccccc1
> 99.5 µM | CCn1cc(-c2cnn(-c3ccccc3)c2)nc(N2CC[C@@H](CO)C2)c1=O
1.17 µM | CN1CCc2c([nH]c3ccc(C(=O)Nc4ccc5c(c4)CNC5)cc23)C1=O

Compound | IC50
N=C(N)NCc1ccc(OC(=O)Nc2ccccc2)cc1 | > 100 µM
C[C@@H]1c2cccnc2CCN1Cc1cccc(CN(C)C)c1 | > 99.5 µM
Clc1cc(CNc2ccc3c(c2)[C@@H]2CC[C@H]3N2)c2cn[nH]c2c1 | > 25 µM
